Measured values reported in article PMC9126592, “sp^2-Iminosugars targeting human lysosomal β-hexosaminidase as pharmacological chaperone candidates for late-onset Tay-Sachs disease” (Journal of Enzyme Inhibition and Medicinal Chemistry, 2022).
Where two headings read alike, the source gives them in different places.

Experiments:
Type in all cases: biochemical
[1] = target: T1, HexA (human lysosomal β-hexosaminidase A) (Homo sapiens, UniProt P06865); assay: Inhibition of HexA in human fibroblast lysates at pH 7 or pH 5
T1 construct: HexA activities in cell lysates were also determined in 0.1 M citrate buffer at pH 5 or pH 7; endogenous in cells; host or cells: human fibroblasts (lysate)
T1 sequence (P06865 89-529): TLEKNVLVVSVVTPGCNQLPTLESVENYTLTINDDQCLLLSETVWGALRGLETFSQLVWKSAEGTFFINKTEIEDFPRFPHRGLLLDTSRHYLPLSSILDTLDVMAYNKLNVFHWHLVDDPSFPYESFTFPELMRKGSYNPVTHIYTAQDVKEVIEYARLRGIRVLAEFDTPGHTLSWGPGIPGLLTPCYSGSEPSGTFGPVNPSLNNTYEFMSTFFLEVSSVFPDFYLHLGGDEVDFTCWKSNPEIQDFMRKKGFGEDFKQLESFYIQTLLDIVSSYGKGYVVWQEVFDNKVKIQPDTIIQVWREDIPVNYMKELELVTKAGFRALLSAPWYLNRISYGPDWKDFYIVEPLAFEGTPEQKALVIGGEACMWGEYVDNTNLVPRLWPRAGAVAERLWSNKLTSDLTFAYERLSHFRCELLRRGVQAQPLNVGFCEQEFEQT
T1 sequence (P07686 122-556 partner): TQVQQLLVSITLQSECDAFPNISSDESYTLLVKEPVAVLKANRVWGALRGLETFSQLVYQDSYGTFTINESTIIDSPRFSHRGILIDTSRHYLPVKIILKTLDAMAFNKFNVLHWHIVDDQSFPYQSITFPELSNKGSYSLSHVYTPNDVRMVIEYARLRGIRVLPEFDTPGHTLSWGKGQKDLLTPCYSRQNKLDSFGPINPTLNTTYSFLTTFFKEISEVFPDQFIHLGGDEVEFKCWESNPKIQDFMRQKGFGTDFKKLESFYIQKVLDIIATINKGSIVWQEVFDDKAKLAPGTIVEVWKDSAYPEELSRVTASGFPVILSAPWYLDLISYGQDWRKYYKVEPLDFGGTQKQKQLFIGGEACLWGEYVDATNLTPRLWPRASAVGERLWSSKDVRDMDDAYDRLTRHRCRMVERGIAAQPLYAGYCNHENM
Experimental: (§1) For determination of lysosomal enzyme activities in cell lysates, cells were scraped into ice-cold H2O (10^6 cells mL^−1) and lysed by sonication. Insoluble materials were removed by centrifugation at 15,000 rpm for 5 min and protein concentrations were determined with Protein Assay Rapid Kit (WAKO, Tokyo, Japan). 10 µL of the lysates in 0.1% Triton X-100 in distilled water were incubated at 37 °C with 20 µL of the substrate solution in 0.1 M citrate buffer, pH 4.5, in absence or presence of increasing concentrations of the chaperones. The substrates were 4-methylumbelliferone (4-MU)-conjugated β-D-glucopyranoside (for GCase), α-D-glucopyranoside (for α-glucosidase), α-D-galactopyranoside (for α-Galase), β-D-galactopyranoside (for β-galactosidase), N-acetyl-β-D-glucosaminide (for total β-hexosaminidase), N-acetyl-β-D-glucosaminide-6-sulfate sodum salt (for HexA) and α-N-acetyl-D-galactosaminide for α-N-acetylgalactosaminidase. HexA activities in cell lysates were also determined in 0.1 M citrate buffer at pH 5 or pH 7, supplemented with sodium taurocholate (0.8% w/v). The reactions were terminated by adding 0.2 ml of 0.2 M glycine sodium hydroxide buffer (pH 10.7). The liberated 4-methylumbelliferone was measured in the black-well plate with a Perkin Elmer Luminescence Spectrometer (excitation wavelength: 340 nm; emission: 460 nm). One unit of enzyme activity was defined as nmol of 4-methylumbelliferone released per hour and normalised for the amount of protein contained in the lysates.

[2] = target: β-hexosaminidase from bovine kidney; assay: Commercial enzyme inhibition assay, β-hexosaminidase from bovine kidney; conditions: mean ± SD (n = 3); competitive
Experimental: (§2) Inhibition constant (Ki) values were determined by spectrophotometrically measuring the residual hydrolytic activities of the glycosidases against the respective o- (for β-galactosidase from E. coli) or p-nitrophenyl α- or β-D-glycopyranoside (for other glycosidases) in the presence of the iminosugars. Each assay was performed in phosphate buffer or phosphate-citrate buffer (for α- or β-mannosidase, amyloglucosidase or β-N-acetylglucosaminidase) at the optimal pH for the enzymes. The reactions were initiated by addition of the enzyme to a solution of the substrate in the absence or presence of various inhibitor concentrations. The mixture was incubated for 10–30 min at 37 °C or 55 °C (for amyloglucosidase) and the reaction was quenched by addition of 1 m Na2CO3. Reaction times were appropriate to obtain 10%–20% conversion of the substrate in order to achieve linear rates. The absorbance of the resulting mixture was determined at 405 nm. Approximate values of Ki were determined using a fixed concentration of substrate (around the KM value for the different glycosidases) and various inhibitor concentrations. Full Ki determinations and the enzyme inhibition mode were determined from the slope of Lineweaver-Burk plots and double reciprocal analysis.

[3] = target: β-hexosaminidase from human placenta; assay: Commercial enzyme inhibition assay, β-hexosaminidase from human placenta; conditions: mean ± SD (n = 3); competitive
Experimental: as §2

[4] = target: Total Hex (human lysosomal β-hexosaminidase); assay: Inhibition of total β-hexosaminidase in human fibroblast lysates; conditions: mean of three determinations
Experimental: as §1

[5] = target: β-hexosaminidase from Jack bean; assay: Commercial enzyme inhibition assay, β-hexosaminidase from Jack bean; conditions: mean ± SD (n = 3); competitive
Experimental: as §2

[6] = pH 5, competitive, read-out: Ki HexA pH 5
[7] = pH 7, competitive, read-out: Ki HexA pH 7

Row | Structure (SMILES) | Ki [1, 6] [nM] | Ki [1, 7] [nM] | Ki [2] [nM] | Ki [3] [nM] | IC50 [4] [nM] | Ki [5] [nM]
1 | CC(=O)NC1CN2C(=Nc3ccccc3)SCC2C(O)C1O (stereo not drawn) [Compound 8, 2-Acetamido-1,2-dideoxy-5-N,6-S-(N’-phenyliminomethylidene)-6-thiogalactonojirimycin] | 3900 | 410 | 46 ± 2 | 44 ± 2 | 330 | 130 ± 10
2 | CCCCCCCCN=C1SCC2C(O)C(O)C(NC(C)=O)CN12 (stereo not drawn) [Compound 6, 2-Acetamido-1,2-dideoxy-5-N,6-S-(N’-octyliminomethylidene)-6-thiogalactonojirimycin] | 6400 | 580 | 15 ± 1 | 26 ± 1 | 1300 | 48 ± 2
3 | CC(=O)N[C@H]1CN(C(=S)NCc2ccccc2)[C@H](CO)[C@H](O)[C@@H]1O [Compound 3, 2-Acetamido-1,2-dideoxy-5-N-(N’-benzylthiocarbamoyl)galactonojirimycin] | > 100000 | > 100000 | 6300 ± 200 | 16000 ± 500 | > 100000 | 5100 ± 200
4 | CC(=O)N[C@H]1CN(C(=S)Nc2ccccc2)[C@H](CO)[C@H](O)[C@@H]1O [Compound 4, 2-Acetamido-1,2-dideoxy-5-N-(N’-phenylthiocarbamoyl)galactonojirimycin] | 9400 | 910 | 140 ± 10 | 240 | 10900 | 65
5 | CC(=O)NC1CN2C(=NCc3ccccc3)SCC2C(O)C1O (stereo not drawn) [Compound 7, 2-Acetamido-1,2-dideoxy-5-N,6-S-(N’-benzyliminomethylidene)-6-thiogalactonojirimycin] | 6900 | 660 | 20 ± 1 | 26 ± 1 | 2200 | 88 ± 3
6 | CCCCNC(=S)N1C[C@H](NC(C)=O)[C@@H](O)[C@@H](O)[C@H]1CO [Compound 1, 2-Acetamido-1,2-dideoxy-5-N-(N’-butylthiocarbamoyl)galactonojirimycin] | 33700 | 4700 | 3500 ± 200 | 4800 ± 200 | > 100000 | 3000 ± 100
7 | CCCCN=C1SCC2C(O)C(O)C(NC(C)=O)CN12 (stereo not drawn) [Compound 5, 2-Acetamido-1,2-dideoxy-5-N,6-S-(N’-butyliminomethylidene)-6-thiogalactonojirimycin] | 9800 | 990 | 24 ± 2 | 55 ± 2 | 2600 | 140 ± 10
8 | CCCCCCCCNC(=S)N1C[C@H](NC(C)=O)[C@@H](O)[C@@H](O)[C@H]1CO [Compound 2, 2-Acetamido-1,2-dideoxy-5-N-(N’-octylthiocarbamoyl)galactonojirimycin] | > 100000 | > 100000 | 2200 ± 100 | 3000 ± 100 | > 100000 | 7200 ± 200
